We go through 4 compounds from paper PMC6291754 (Frontiers in Microbiology, 2018).

“And” between values parts separate entries of the source, which are not always exact repeats. Equal values may be shown once. Read-outs that look alike come from different tables or passages of the source.

Assay [1] has as its system A/Chiba/1017/2009 (NA H275Y). The format is cell-based, influenza A(H1N1)pdm09 virus.
In assay [2] the test system is A/Chiba/1016/2009 (NA 275H wild-type). The assay is described as follows: microbe, parasite or virus in culture. The format is cell-based, influenza A(H1N1)pdm09 virus. The following applies: Influenza A virus, MDCK, 24 h, read-out: IC50, focus reduction.
The subject of assay [3] is influenza A(H3N2) virus with PA V517A. The following applies: cited from earlier work.
Assay [4] concerns A/Kagoshima/2/2012 (NA R292K). The format is cell-based, influenza A(H3N2) virus.
For assay [5], the system named is A/PR/8/34-PA/I38T. In kind it is cell-based, influenza A(H1N1) virus.
Assay [6] relates to influenza A(H3N2) virus with PA P632S. The following applies: cited from earlier work.
The test system of assay [7] is B/Perth/211/2001-197E (NA D197E). The format is cell-based, influenza B virus.
In assay [8] the test system is B/Perth/211/2001-197D (NA 197D wild-type). Briefly: microbe, parasite or virus in culture. The format is cell-based. The following applies: Influenza B virus, MDCK, 24 h, read-out: IC50, focus reduction.
Assay [9] concerns influenza A(H1N1) virus with PA E23K. Conditions: cited from earlier work.
The subject of assay [10] is A/Fukui/45/2004 (NA E119V). The format is cell-based, influenza A(H3N2) virus.
Assay [11] relates to influenza A(H3N2) virus with PA A37T. Conditions: cited from earlier work.
The subject of assay [12] is influenza A(H3N2) virus with PA I38M. The following applies: cited from earlier work.
Assay [13] relates to A/PR/8/34 (PA 38I wild-type). Briefly: microbe, parasite or virus in culture. In kind it is cell-based, influenza A(H1N1) virus. Conditions: Influenza A virus, PR/8, MDCK, 24 h, read-out: IC50, focus reduction.
Assay [14] relates to A/Fukui/20/2004 (NA 119E wild-type). The assay is described as follows: microbe, parasite or virus in culture. The format is cell-based, influenza A(H3N2) virus. The following applies: Influenza A virus, MDCK, 72 h, read-out: IC50, plaque reduction.
Assay [15] has as its system A/Kagoshima/2/2012 (NA R292K). In kind it is cell-based, influenza A(H3N2) virus. The source holds these as a separate data set.
The subject of assay [16] is B/Perth/211/2001-197E (NA D197E). In kind it is cell-based, influenza B virus. The source holds these as a separate data set.
Assay [17] deals with influenza B virus with PA G548R. The following applies: cited from earlier work.
Assay [18] deals with influenza A(H3N2) virus with PA I38T. The following applies: cited from earlier work.
The subject of assay [19] is A/Fukui/20/2004 (NA 119E wild-type). The assay is described as follows: microbe, parasite or virus in culture. The following applies: Influenza A virus, MDCK, 24 h, read-out: IC50, focus reduction. In kind it is cell-based, influenza A(H3N2) virus.
Assay [20] deals with influenza A(H1N1) virus with PA I38F. The following applies: cited from earlier work.
For assay [21], the system named is A/Fukui/45/2004 (NA E119V). In kind it is cell-based, influenza A(H3N2) virus. The source holds these as a separate data set.
The test system of assay [22] is influenza A(H1N1) virus with PA I38T. Conditions: cited from earlier work.
Assay [23] concerns B/Perth/211/2001-197D (NA 197D wild-type). Briefly: microbe, parasite or virus in culture. Conditions: Influenza B virus, MDCK, 72 h, read-out: IC50, plaque reduction. The format is cell-based.
Assay [24] concerns A/Kagoshima/4/2012 (NA 292R wild-type). The assay is described as follows: microbe, parasite or virus in culture. In kind it is cell-based, influenza A(H3N2) virus. Conditions: Influenza A virus, MDCK, 72 h, read-out: IC50, plaque reduction.
Assay [25] concerns A/PR/8/34 (PA 38I wild-type). Briefly: microbe, parasite or virus in culture. The format is cell-based, influenza A(H1N1) virus. The following applies: Influenza A virus, PR/8, MDCK, 72 h, read-out: IC50, plaque reduction.
Assay [26] relates to influenza A(H1N1) viruses with PA I38T. Conditions: cited from earlier work.
Assay [27] has as its system A/Chiba/1016/2009 (NA 275H wild-type). The assay is described as follows: microbe, parasite or virus in culture. In kind it is cell-based, influenza A(H1N1)pdm09 virus. Conditions: Influenza A virus, MDCK, 72 h, read-out: IC50, plaque reduction.
For assay [28], the system named is influenza A(H3N2) virus with PA N412D. Conditions: cited from earlier work.
The test system of assay [29] is A/Chiba/1017/2009 (NA H275Y). The format is cell-based, influenza A(H1N1)pdm09 virus. This is another data set of the same source.
Assay [30] relates to A/PR/8/34-PA/I38T. The format is cell-based, influenza A(H1N1) virus. Conditions: read-out: IC50, plaque reduction.
Assay [31] concerns A/Kagoshima/4/2012 (NA 292R wild-type). Briefly: microbe, parasite or virus in culture. The format is cell-based, influenza A(H3N2) virus. Conditions: Influenza A virus, MDCK, 24 h, read-out: IC50, focus reduction.
For assay [32], the system named is influenza A(H3N2) virus with PA E199G. Conditions: cited from earlier work.
Assay [33] addresses A/Fukui/45/2004 (NA E119V) neuraminidase (NA) (Influenza A virus, UniProt C6ELZ0, E119V). In kind it is biochemical, influenza A(H3N2) virus.
Assay [34] concerns the target A/Chiba/1017/2009 (NA H275Y) neuraminidase (NA) (Influenza A virus, UniProt C7FH46, H275Y). The format is biochemical, influenza A(H1N1)pdm09 virus.
Assay [35] deals with B/Perth/211/2001-197D (NA 197D wild-type) neuraminidase (NA) (Influenza B virus, UniProt Q3S340). In kind it is biochemical.
For assay [36], the target named is A/Kagoshima/2/2012 (NA R292K) neuraminidase (NA) (Influenza A virus, UniProt J9TKI7, R292K). The format is biochemical, influenza A(H3N2) virus.
Assay [37] deals with B/Perth/211/2001-197E (NA D197E) neuraminidase (NA) (Influenza B virus, UniProt Q3S340, D197E). The format is biochemical.
Assay [38] deals with A/PR/8/34 (PA 38I wild-type) neuraminidase (NA) (Influenza A virus, UniProt P03468). The format is biochemical, influenza A(H1N1) virus.
Assay [39] has as its target A/Chiba/1016/2009 (NA 275H wild-type) neuraminidase (NA) (Influenza A virus, UniProt C7FH46). In kind it is biochemical, influenza A(H1N1)pdm09 virus.
The target of assay [40] is A/PR/8/34-PA/I38T neuraminidase (NA) (Influenza A virus, UniProt P03468).
In assay [41] the target is A/Kagoshima/4/2012 (NA 292R wild-type) neuraminidase (NA) (Influenza A virus, UniProt J9TKI7). In kind it is biochemical, influenza A(H3N2) virus.
The target of assay [42] is A/Fukui/20/2004 (NA 119E wild-type) neuraminidase (NA) (Influenza A virus, UniProt C6ELZ0). The format is biochemical, influenza A(H3N2) virus.
The mark [43] stands for this setting: read-out: IC50, plaque reduction.
[44] abbreviates: read-out: IC50, focus reduction.

For orientation: IC50 means the concentration needed to halve the response being measured. For the compound `O=C1c2c(O)c(=O)ccn2N([C@@H]2c3ccccc3SCc3c2ccc(F)c3F)[C@@H]2COCCN12` [Baloxavir, baloxavir acid], the “IC50 fold-change, plaque reduction” value in [1] is on record as 0.21 ± 0.02 (0.8) fold; in [4], 0.22 ± 0.09 (1.5) fold; in [7], 5.68 ± 1.00 (2.6) fold; in [21], 0.15 ± 0.02 (0.4) fold. Besides, the IC50 in [1] (setting [43]) worked out at 0.21 nM; in assay [2], 0.5 ± 0.02 nM; in assay [4] (setting [43]), 0.22 nM; in the assay on A/PR/8/34-PA/I38T [5] (setting [44]), 7.4 nM; in assay [7] (setting [43]) it was 5.68 nM; in [8], 5.41 ± 1.99 nM. The IC50 is 0.62 nM in assay [10] (setting [44]); 0.17 ± 0.03 nM in [13]; 0.42 ± 0.15 nM in assay [14]; 0.59 nM in assay [15] (setting [44]); 5.63 nM in assay [16] (setting [44]); 1.18 ± 0.49 nM in assay [19]. Also, the IC50 is 0.15 nM in assay [21] (setting [43]); 2.2 ± 0.28 nM in assay [23]; 0.15 ± 0.06 nM in [24]; 0.05 ± 0.02 nM in [25]; 0.27 ± 0.09 nM in assay [27]; 0.53 nM in [29] (setting [44]). Further, the IC50 in the assay with A/PR/8/34-PA/I38T [30] was 2.72 nM; in assay [31], 0.29 ± 0.08 nM. The “effect of substitution on baloxavir susceptibility” value in assay [3] is “not affected”; in assay [6] it was “not affected”; in assay [17] it was “does not affect baloxavir susceptibility”; in assay [28] it was “not affected”. Besides, the “IC50 fold-change, focus reduction” value in the assay on A/PR/8/34-PA/I38T [5] is 44 fold; in [10], 0.62 ± 0.04 (0.5) fold; in [15], 0.59 ± 0.29 (2.0) fold; in assay [16], 5.63 ± 2.34 (1.0) fold; in assay [29], 0.53 ± 0.15 (1.0) fold. Moreover, the “fold higher EC50” value in [9] is 4.7 fold; in [11] it was 8.1 fold; in assay [12], 13.8 fold; in [18], 56.6 fold; in assay [20] it was 10.6 fold; in assay [22], 27.2 fold. For the same compound, in assay [32], the “fold higher EC50” value is listed as 4.5 fold. The “fold-change in EC50” value in [26] was 41 fold and 40 fold.

As for `CO[C@@H]([C@@H]1OC(C(=O)O)=C[C@H](NC(=N)N)[C@H]1NC(C)=O)[C@H](O)CO` [Laninamivir], the “NA inhibitor susceptibility (WHO criteria)” value (“NA inhibitor susceptibility” below) in [33] is listed as 1.2 ± 0.1 NI; in [34], 0.3 ± 0.1 NI; in assay [36], 3.9 ± 0.1 NI; in assay [37], 1.9 ± 0.1 NI. In [35], this compound had an IC50 of 1.3 ± 0.3 nM.

For `CCC(CC)[C@H](NC(C)=O)[C@@H]1[C@H](O)[C@@H](C(=O)O)C[C@H]1N=C(N)N` [Peramivir, peramivir], the IC50 was 0.2 ± 0.1 nM in assay [33]; 0.09 ± 0.01 nM in assay [38]; 28 ± 3.9 nM in assay [34]; 0.1 ± 0.1 nM in assay [39]; 0.4 ± 0.1 nM in assay [35] (read-out: IC50); 0.09 nM in assay [40]. Further, the IC50 in [41] is 0.1 ± 0.1 nM; in assay [42], 0.2 ± 0.1 nM; in assay [36] it was 35.2 ± 2.6 nM; in assay [37], 16.2 ± 6 nM. In addition, the “NA inhibitor susceptibility” value in [33] is 0.2 ± 0.1 NI; in assay [37] it was 16.2 ± 6.0 RI (key: normal inhibition (NI); RI: a 5- to 50-fold increase in IC50 for influenza B viruses; HRI: influenza B viruses with >50-fold increase in IC50). In addition, in [40], the IC50 fold-change was 0.09 ± 0.01 (1.0) fold.

`CC(=O)N[C@H]1[C@H]([C@H](O)[C@H](O)CO)OC(C(=O)O)=C[C@@H]1N=C(N)N` [Zanamivir, zanamivir]: in assay [34], the “NA inhibitor susceptibility” value was 0.5 ± 0.1 NI.
